What was measured:
[1] = Single ascending-dose clinical trial of intranasal betahistine in healthy volunteers (plasma pharmacokinetics, LC-MS/MS); details: human; for half-life / AUC / AUC(0-inf) / AUC(0-t) / Cmax / Tmax: both, plasma, inhaled or intranasal
Description: (§1) The safety and pharmacokinetic profile of intranasal betahistine was further evaluated in a double-blind, randomized, placebo-controlled, single ascending-dose clinical trial involving a total of 32 healthy male and female volunteers. The main inclusion criteria were that subjects had to be aged 18-45 years and show a body mass index within the range of 18-30 kg/m^2. Subjects were required to fast for 8 hours prior to study drug administration and for 2 hours post-dose.
(§2) The betahistine was supplied as a 50 and 200 mg/mL solution in a HDPE bottle and spray pump pack (Aptar Classic Line) that delivers an accurate 100 μL per actuation. The study drug was delivered into the right nostril of subjects while they were in a supine position. For the 5 and 20 mg doses, one application of 50 and 200 mg/mL, respectively, was needed, whereas for the 10 and 40 mg doses, two applications of 50 and 200 mg/mL were required.
Serial blood samples were collected through 24 hours, following dosing on Day 1, at Day 4 and Day 7 to determine concentrations of betahistine and its main metabolite, 2-PAA in plasma. Plasma samples were assayed for BH content using validated procedures and methods. Blood samples (6 mL) were collected into tubes containing K2EDTA and were centrifuged at approximately 2000 g for 10 minutes at +4° C. and the resultant plasma transferred into 2 clean, labelled 2 mL cryovials. All plasma samples were stored at −70° C. or below until all samples had been collected and sent as a single batch for analysis. […] Concentrations were determined using liquid chromatographic tandem mass spectrometry (LC-MS/MS; SCIEX API 5000 for betahistine and SCIEX API 4000 for 2-PAA) with a validated method. Betahistine-^13CD3 dihydrochloride and 2-PAA-D4 hydrochloride served as internal standards. The standard calibration range—using a plasma sample volume of 0.2 and 0.1 mL, respectively—for betahistine was 10 to 800 pg/mL and for 2-PAA it was 2 to 2000 ng/mL. The limit of quantitation was 10 pg/mL for betahistine and 2.0 ng/mL for 2-PAA.
In case of betahistine, the method involved a liquid-liquid extraction; in case of 2-PAA it involved protein precipitation. For betahistine, plasma samples were extracted under basic conditions with an organic solvent; the organic phase was dried and reconstituted in reconstitution solvent. Approximately 0.120 mL of the aqueous layer was transferred into polypropylene vials for LC-MS/MS analysis. For 2-PAA plasma samples were precipitated with a mixture of organic solvents, supernatant was diluted and 0.120 mL was transferred into polypropylene vials for LC-MS/MS analysis. Sample analysis was conducted using reversed phase chromatography.
For each subject who completed the study, plasma concentration-time data of betahistine and 2-PAA were used for the calculation of the following pharmacokinetic parameters: • Cmax Maximum observed plasma concentration obtained directly from the data. • tmax Time to maximum observed concentration, taken directly from the data. If the maximum plasma concentration occurred at more than one time point, the first was chosen. • AUC0-last Area under the plasma concentration versus time curve, calculated using the linear trapezoidal rule from time 0 to time t, where t is the time of last quantifiable concentration. • λz Terminal elimination rate constant obtained from the slope of the line, fitted by linear least squares regression through the terminal points of the logarithmic concentration-time profiles (sometimes also referred to as kel). • AUC0-inf Area under the plasma concentration versus time curve from zero to infinity, calculated as (AUC0-t+Ct/λz), where Ct is the last quantifiable concentration. • t1/2 Apparent terminal half-life, calculated as t1/2=ln(2)/λz.
Dose normalized parameters Cmax/Dose and AUC/Dose were also calculated.

[2] = Toxicokinetic assessment of plasma betahistine and 2-PAA after intranasal betahistine (LC-MS/MS), Example 2; details: both, beagle, dog, inhaled or intranasal
Description: (§3) The safety and pharmacokinetic profile of intranasal betahistine was first evaluated in a single dose toxicology study in male and female beagle dogs (14-21 months of age, weight 8.2-11.8 kg). Both the vehicle and test article were delivered in a single dose via a nasal spray pump (Aptar Classic Line) with a delivery volume of 100 μL into both nostrils at total dose levels of 0 (vehicle), 4, 20 or 80 mg of betahistine dihydrochloride. Each treatment group was made up of 1 dog/sex.
(§4) Plasma concentrations were measured with liquid chromatographic tandem mass spectrometry (LC-MS/MS; SCIEX API 5000 for betahistine and SCIEX API 4000 for 2-pyridylacetic acid (2-PAA)) with a validated method. Betahistine-^13CD3 dihydrochloride and 2-PAA-D4 hydrochloride served as internal standards. The standard calibration range—using a plasma sample volume of 0.05 mL—for betahistine was 0.05 to 50 ng/mL and for 2-PAA it was 1 to 1000 ng/mL. The limit of quantitation was 0.05 ng/mL for betahistine and 1.0 ng/mL for 2-PAA.
(§5) In case of betahistine, the method involved a liquid-liquid extraction; in case of 2-PAA it involved protein precipitation. For betahistine, plasma samples were extracted under basic conditions with an organic solvent; the organic phase was dried and reconstituted in reconstitution solvent. Approximately 0.1 mL of the aqueous layer was transferred into polypropylene vials for LC-MS/MS analysis. For 2-PAA, plasma samples were precipitated with a mixture of organic solvents, supernatant was diluted and 0.12 mL was transferred into polypropylene vials for LC-MS/MS analysis. Sample analysis was conducted using reversed phase chromatography.

[3] = Single ascending-dose clinical trial of intranasal betahistine in healthy volunteers (safety); assay type: in vivo; details: human
Description: as §1, §2

[4] = Single-dose and repeat-dose intranasal toxicology study in beagle dogs (safety); assay type: in vivo; details: dog
Text: Salivation after betahistine treatment was previously reported to occur in dogs, it was transient in nature in the present study and resolved quickly. Body weights, clinical pathology and gross necropsy findings were unremarkable.

[5] = Tolerability of intranasal betahistine in beagle dogs, Example 5; assay type: in vivo; details: dog
Description: In this study, the pharmacokinetic profile of betahistine was evaluated after a single dose administration of betahistine in male and female beagle dogs (age 5-7 months; weight of 5-11 kg, within a range of 3 kg for each sex) for three routes of administration: oral, intranasal, and intravenous.
On Day 8 of the study, the animals that received oral BH at a dose of 12 mg/kg were administered the test betahistine composition intranasally at a dose of 40 mg betahistine dihydrochloride; the animals that received oral BH at a dose of 24 mg/kg were administered the test betahistine composition intranasally at a dose of 80 mg betahistine dihydrochloride; and the animals that received oral BH at a dose of 48 mg/kg were administered the test betahistine composition intranasally at a dose of 120 mg betahistine dihydrochloride. The test betahistine composition was delivered intranasally in a single dose via an Aptar nasal spray pump device at a total dose level of 40, 80 and 120 mg of betahistine dihydrochloride. Plasma samples were collected prior to dosing, and then at 5, 10, 20 and 30 min, 1, 2, 3, 6, 24 hours after dosing.

[6] = both, beagle, dog, in vivo, 1 h
Description: as §3, §4, §5

[7] = Relative bioavailability of intranasal versus oral betahistine in humans, Example 6; assay type: in vivo; details: human
[8] = intranasal single and repeated dose

SMILES: CNCCc1ccccn1 [betahistine]
- half-life [1]: < 60 min
- AUC ([1]; 0.07 mg/kg): 0.209 ng·h/mL
- AUC ([1]; 0.15 mg/kg): 0.533 ng·h/mL
- AUC ([1]; 0.29 mg/kg): 1.61 ng·h/mL
- AUC ([1]; 0.57 mg/kg): 3.53 ng·h/mL
- AUC(0-inf) ([1]; 5 mg): 0.277 ng·h/mL
- AUC(0-t) ([1]; 5 mg): 0.209 ng·h/mL
- Cmax ([1]; 5 mg): 0.638 ng/mL
- Tmax ([1]; 5 mg): 12.5 min
- half-life ([1]; 5 mg): 12.5 min
- AUC(0-inf) ([1]; 10 mg): 0.697 ng·h/mL
- AUC(0-t) ([1]; 10 mg): 0.533 ng·h/mL
- Cmax ([1]; 10 mg): 2.11 ng/mL
- Tmax ([1]; 10 mg): 10 min
- half-life ([1]; 10 mg): 53 min
- AUC(0-inf) ([1]; 20 mg): 1.63 ng·h/mL
- AUC(0-t) ([1]; 20 mg): 1.61 ng·h/mL
- Cmax ([1]; 20 mg): 4.11 ng/mL
- Tmax ([1]; 20 mg): 10 min
- half-life ([1]; 20 mg): 31.1 min
- AUC(0-inf) ([1]; 40 mg): 2.94 ng·h/mL
- AUC(0-t) ([1]; 40 mg): 3.53 ng·h/mL
- Cmax ([1]; 40 mg): 10.5 ng/mL
- Tmax ([1]; 40 mg): 7.5 min
- half-life ([1]; 40 mg): 55.6 min
- peak concentration in plasma ([1]; intranasal 20 mg): 4.1 ng/mL
- peak concentration in plasma ([1]; intranasal 40 mg): 10.5 ng/mL
- Tmax [2]: 5 min
- Cmax ([2]; 4 mg): 26 ng/mL
- Cmax ([2]; 20 mg): 81 ng/mL
- Cmax ([2]; 80 mg): 248 ng/mL
- hematology, biochemistry, urinalysis, vital signs and electrocardiogram assessments ([3]; active- versus placebo-treated subjects): no differences
- tolerability ([3]; intranasal 5, 10, 20 and 40 mg): well tolerated
- test article-related clinical signs ([4]; intranasal 80 mg single dose and repeated dose 240 mg/day, transient): mild to moderate salivation
- body weights, clinical pathology and gross necropsy findings [4, 8]: unremarkable
- microscopic findings [4, 8]: No adverse treatment-related microscopic findings
- salivation ([5]; highest concentration betahistine group): salivation was noted in most animals
- sneezing ([5]; highest dose level): 2/8
- decline of plasma concentration [6]: more than 90%
- AUC/Dose ([7]; intranasal 5 mg (0.07 mg/kg)): 3.01 (h · ng/mL)/(mg/kg)
- AUC/Dose ([7]; intranasal 10 mg (0.15 mg/kg)): 3.67 (h · ng/mL)/(mg/kg)
- AUC/Dose ([7]; intranasal 20 mg (0.29 mg/kg)): 5.60 (h · ng/mL)/(mg/kg)
- AUC/Dose ([7]; intranasal 40 mg (0.57 mg/kg)): 6.21 (h · ng/mL)/(mg/kg)
